Assay [1] addresses Human carbonic anhydrase II (hCA-II) (Homo sapiens (Human), UniProt P00918). Nature of the assay: Human carbonic anhydrase-II inhibition assay (absorbance, 4-NPA substrate). In kind it is biochemical. The note with it: hCA II 8 nM, 4-NPA 2.5 mM, absorbance 340 nm; read-out: CA-II IC50. How it is done:
Human Carbonic Anhydrase-II Inhibition Assay
Then 30 μL of 16 nM hCA II solution was added (8 nM final concentration), mixed five times. 30 μL of 4-NPA substrate solution was added (2.5 mM final concentration), mixed five times.

Another assay concerns the target human ATX (Homo sapiens (Human), UniProt Q13822). As to the kind of experiment: Human ATX enzyme inhibition assay (fluorescence quenching, MR121 substrate). The assay is classed as biochemical. Particulars: human His-tagged ATX 30 nM, MR121 substrate 1 μM. As to the method: Production of Human Full Length ATX, with and without His Tag
Autotaxin (ATX-ENPP2) cloning: cDNA was prepared from commercial human hematopoietic cells total RNA and used as template in overlapping PCR to generate a full length human ENPP2 ORF with or without a 3′-6× His tag. These full length inserts were cloned into the pcDNA3.1V5-His TOPO (Invitrogen) vector. The DNA sequences of several single clones were verified. The DNA from a correct full length clone was used to transfect Hek293 cells for verification of protein expression. The sequence of the encoded ENPP2 conforms to Swissprot entry Q13822, with or without the additional C-terminal 6× His tag.
ATX Fermentation: Recombinant protein was produced by large-scale transient transfection in 20 L controlled stirred tank bioreactors (Sartorius). During cell growth and transfection, temperature, stirrer speed, pH and dissolved oxygen concentration were maintained at 37° C., 120 rpm, 7.1 and 30% DO, respectively. FreeStyle 293-F cells (Invitrogen) were cultivated in suspension in FreeStyle 293 medium (Invitrogen) and transfected at ca. 1-1.5×10E6 cells/mL with above plasmid DNAs using X-tremeGENE Ro-1539 (commercial product, Roche Diagnostics) as complexing agent. Cells were fed a concentrated nutrient solution (J Immunol Methods 194 (1996), 19, 1-199 (page 193)) and induced by sodium butyrate (2 mM) at 72 h post-transfection and harvested at 96 h post-transfection. Expression was analyzed by Western Blot, enzymatic assay and/or analytical IMAC chromatography. After cooling the cell suspension to 4° C. in a flow-through heat exchanger, cell separation and sterile filtration of supernatant was performed by filtration through Zeta Plus 60M02 E16 (Cuno) and Sartopore 2 XLG (Sartorius) filter units. The supernatant was stored at 4° C. prior to purification.
ATX Purification: 20 liter of culture supernatant were conditioned for ultrafiltration by adding Brij 35 to a final concentration of 0.02% and by adjusting the pH to 7.0 using 1 M HCl. Then the supernatant was first microfiltred through a 0.2 µm Ultran-Pilot Open Channel PES filter (Whatman) and afterwards concentrated to 1 liter through an Ultran-Pilot Screen Channel PES filter with 30 kDa MWCO (Whatman). Prior to IMAC chromatography, NiSO4 was added to a final concentration of 1 mM. […] The column was washed stepwise with the same buffer containing 20 mM, 40 mM and 50 mM imidazole, respectively. The protein was subsequently eluted using a linear gradient to 0.5 M imidazole in 15 column volumes. ATX containing fractions were pooled and concentrated using an Amicon cell equipped with a 30 kDa PES filter membrane. […] Final yield of protein after purification was 5-10 mg ATX per liter of culture supernatant. The protein was stored at −80° C.
Human ATX Enzyme Inhibition Assay
Test compounds (10 mM stock in DMSO, 8 μL) were obtained in 384 well sample plates (Corning Costar #3655) and diluted with 8 μL DMSO. […] Then, 15 μL of 41.7 nM ATX solution was added (30 nM final concentration), mixed five times and then incubated for 15 minutes at 30° C. 10 μL of MR121 substrate solution was added (1 μM final concentration), mixed 30 times and then incubated for 15 minutes at 30° C.

Each structure is given as a SMILES string.

Broadly, the IC50 is the concentration that inhibits the measured activity by half. On to `CO[C@]12CN(C(=O)OCc3ncc(C(F)(F)F)cc3NC(=O)C(C)(C)C)C[C@@H]1CN(C(=O)c1ccc(S(N)(=O)=O)cc1F)C2` (racemic) [Example 1.00, trans-5-(2-Fluoro-4-sulfamoyl-benzoyl)-3a-methoxy-hexahydro-pyrrolo[3,4-c]pyrrole-2-carboxylic acid 3-(2,2-dimethyl-propionylamino)-5-trifluoromethyl-pyridin-2-ylmethyl ester], for which the values for the IC50 (in assay [1]; at human ATX) were 5 nM and 8 nM, respectively.

`CO[C@]12CN(C(=O)OCc3ncc(C(F)(F)F)cc3NC(=O)C(C)(C)C)C[C@@H]1CN(C(=O)c1ccc(S(N)(=O)=O)cc1)C2` (racemic) [Example 1.03, trans-5-(4-sulfamoyl-benzoyl)-3a-methoxy-hexahydro-pyrrolo[3,4-c]pyrrole-2-carboxylic acid 3-(2,2-dimethyl-propionylamino)-5-trifluoromethyl-pyridin-2-ylmethyl ester] showed a concentration for half-maximal inhibition (IC50) against human ATX of 6 nM.

At human ATX, `NS(=O)(=O)c1ccc(C(=O)N2C[C@H]3CN(C(=O)OCc4ccc(OC(F)(F)F)cc4)C[C@]3(F)C2)cc1` (racemic) [Example 1.04, trans-5-(4-sulfamoyl-benzoyl)-3a-fluoro-hexahydro-pyrrolo[3,4-c]pyrrole-2-carboxylic acid 4-trifluoromethoxy-benzyl ester] returned an IC50 of 3 nM.

`CO[C@]12CN(C(=O)OCc3ccc(OC(F)(F)F)cc3)C[C@@H]1CN(C(=O)c1ccc(S(N)(=O)=O)cc1)C2` (racemic) [Example 1.05, trans-5-(4-sulfamoyl-benzoyl)-3a-methoxy-hexahydro-pyrrolo[3,4-c]pyrrole-2-carboxylic acid 4-trifluoromethoxy-benzyl ester] returned an IC50 on human ATX of 20 nM.

`C[C@]12CN(C(=O)OCc3ccc(OC(F)(F)F)cc3)C[C@@H]1CN(C(=O)c1ccc(S(N)(=O)=O)cc1)C2` (racemic) [Example 1.06, trans-3a-methyl-5-(4-sulfamoyl-benzoyl)-hexahydro-pyrrolo[3,4-c]pyrrole-2-carboxylic acid 4-trifluoromethoxy-benzyl ester] came in with an IC50 against human ATX of 6 nM.

Take `CO[C@]12CN(C(=O)CCc3ccc(OC(F)(F)F)cc3)C[C@@H]1CN(C(=O)c1ccc(S(N)(=O)=O)cc1F)C2` (relative stereo) [Example 1.01, trans-4-[3a-methoxy-2-[3-[4-(trifluoromethoxy)phenyl]propanoyl]-3,4,6,6a-tetrahydro-1H-pyrrolo[3,4-c]pyrrole-5-carbonyl]-3-fluorobenzenesulfonamide]: the half-inhibitory concentration (IC50) turned out to be 8 nM in assay [1] and 10 nM against human ATX.

For `CO[C@@]12CN(C(=O)c3cc(OCC4CCOCC4)nc(C4CC4)c3)C[C@H]1CN(C(=O)c1ccc(S(N)(=O)=O)cc1F)C2` (relative stereo) [Example 1.02, trans-4-[5-[2-cyclopropyl-6-(oxan-4-ylmethoxy)pyridine-4-carbonyl]-3a-methoxy-3,4,6,6a-tetrahydro-1H-pyrrolo[3,4-c]pyrrole-2-carbonyl]-3-fluorobenzenesulfonamide], the results for the IC50 (in assay [1]; against human ATX) were 10 nM and 6 nM, respectively.

For the compound `CO[C@]12CN(C(=O)OCc3ncc(C(F)(F)F)cc3NC(=O)C(C)(C)C)C[C@@H]1CN(C(=O)c1ccc(S(N)(=O)=O)cn1)C2` (relative stereo) [Example 1.07, trans-5-(5-sulfamoylpyridine-2-carbonyl)-3a-methoxy-hexahydro-pyrrolo[3,4-c]pyrrole-2-carboxylic acid 3-(2,2-dimethyl-propionylamino)-5-trifluoromethyl-pyridin-2-ylmethyl ester], the values for the IC50 (in assay [1]; against human ATX) were 13 nM and 6 nM, respectively.

In the case of `CO[C@]12CN(C(=O)CCc3ccc(OC(F)(F)F)cc3)C[C@@H]1CN(C(=O)c1ccc(S(N)(=O)=O)cn1)C2` (relative stereo) [Example 1.08, trans-6-[3a-methoxy-2-[3-[4-(trifluoromethoxy)phenyl]propanoyl]-3,4,6,6a-tetrahydro-1H-pyrrolo[3,4-c]pyrrole-5-carbonyl]pyridine-3-sulfonamide], the figures for the IC50 (in assay [1]; on human ATX) were 18 nM and 17 nM, respectively.

Turning to `CO[C@@]12CN(C(=O)c3cc(OCC4CCOCC4)nc(C4CC4)c3)C[C@H]1CN(C(=O)c1ccc(S(N)(=O)=O)cn1)C2` (relative stereo) [Example 1.09, trans-6-[5-[2-cyclopropyl-6-(oxan-4-ylmethoxy)pyridine-4-carbonyl]-3a-methoxy-3,4,6,6a-tetrahydro-1H-pyrrolo[3,4-c]pyrrole-2-carbonyl]pyridine-3-sulfonamide], the 50% inhibitory concentration (IC50) (in assay [1]; on human ATX) was 10 nM throughout.

With `NS(=O)(=O)c1ccc(C(=O)N2C[C@H]3CN(C(=O)OCc4ccc(OC(F)(F)F)cc4)C[C@]3(F)C2)c(F)c1` (relative stereo) [Example 2.00, trans-5-(2-Fluoro-4-sulfamoyl-benzoyl)-3a-fluoro-hexahydro-pyrrolo[3,4-c]pyrrole-2-carboxylic acid 4-trifluoromethoxy-benzyl ester], the IC50 in assay [1] is 6 nM; at human ATX it was 7 nM.

On to `NS(=O)(=O)c1ccc(C(=O)N2C[C@H]3CN(C(=O)/C=C/c4ccc(OC(F)(F)F)cc4)C[C@]3(F)C2)c(F)c1` (relative stereo) [Example 3.00, trans-4-[3a-Fluoro-2-[(E)-3-[4-(trifluoromethoxy)phenyl]prop-2-enoyl]-3,4,6,6a-tetrahydro-1H-pyrrolo[3,4-c]pyrrole-5-carbonyl]-3-fluorobenzenesulfonamide], for which the IC50 is 9 nM in assay [1] and 5 nM against human ATX.

Turning to `NS(=O)(=O)c1ccc(C(=O)N2C[C@@H]3CN(C(=O)c4cc(OCC5CCOCC5)nc(C5CC5)c4)C[C@@]3(F)C2)c(F)c1` (relative stereo) [Example 3.02, trans-4-[5-[2-cyclopropyl-6-(oxan-4-ylmethoxy)pyridine-4-carbonyl]-3a-fluoro-3,4,6,6a-tetrahydro-1H-pyrrolo[3,4-c]pyrrole-2-carbonyl]-3-fluorobenzenesulfonamide], the concentration for half-maximal inhibition (IC50) in assay [1] is 6 nM; on human ATX, 8 nM.

With `NS(=O)(=O)c1ccc(C(=O)N2C[C@H]3CN(C(=O)CCc4ccc(OC(F)(F)F)cc4)C[C@]3(F)C2)c(F)c1` (relative stereo) [Example 3.03, trans-4-[3a-fluoro-2-[3-[4-(trifluoromethoxy)phenyl]propanoyl]-3,4,6,6a-tetrahydro-1H-pyrrolo[3,4-c]pyrrole-5-carbonyl]-3-fluorobenzenesulfonamide], the concentration for half-maximal inhibition (IC50) came out at 6 nM in assay [1] and 4 nM against human ATX.

Regarding `CO[C@@]12CN(C(=O)OCc3ccc(OC(F)(F)F)cc3)C[C@H]1CN(C(=O)c1ccc(S(N)(=O)=O)cc1)C2` (single isomer, unassigned) [Example 4.01, (−)-trans-5-(4-sulfamoyl-benzoyl)-3a-methoxy-hexahydro-pyrrolo[3,4-c]pyrrole-2-carboxylic acid 4-trifluoromethoxy-benzyl ester], the figures for the concentration for half-maximal inhibition (IC50) (in assay [1]; against human ATX) were 18 nM and 13 nM, respectively.

With `NS(=O)(=O)c1ccc(C(=O)N2C[C@@H]3CN(C(=O)OCc4ccc(OC(F)(F)F)cc4)C[C@@]3(F)C2)cc1` (single isomer, unassigned) [Example 4.02, (−)-trans-5-(4-sulfamoyl-benzoyl)-3a-fluoro-hexahydro-pyrrolo[3,4-c]pyrrole-2-carboxylic acid 4-trifluoromethoxy-benzyl ester], the IC50 is 10 nM in assay [1] and 8 nM against human ATX.

Source of the values: patent publication US10738053B2, “Bicyclic compounds as dual ATX/CA inhibitors” (Hoffmann-La Roche Inc., priority 2015, dated 2020).
